Laboratory results from US11718604B2, “4-amino-6-(1,3-benzodioxole)picolinates and their use as herbicides” (Dow AgroSciences LLC, priority 2018, dated 2023).

Tests used:
Type in all cases: in vivo
[1] = tested on: SORVU: shattercane (Sorghum bicolor); experiment: Post-emergent herbicidal test, shattercane; conditions: post-emergence, 336 h, 14 days after application, read-out: Visual Growth Reduction (%) 14 Days After Application SORVU; for pest or weed control at 17.5 g/ha: 17.5 g ai/ha; for pest or weed control at 35 g/ha: 35 g ai/ha; for pest or weed control at 70 g/ha: 70 g ai/ha; for pest or weed control at 140 g/ha: 140 g ai/ha
Summary of the method: (§1)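 Post-emergence foliar spray, 187 L/ha, 1st–2nd true leaf plants; vehicle acetone/DMSO/IPA/water + Atplus 411F + Triton X-155; solvent-blank controls; subirrigated; 14 d greenhouse, visual % injury.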

[2] = tested on: SETFA: giant foxtail (Setaria faberi); experiment: Post-emergent herbicidal test, giant foxtail; conditions: post-emergence, 336 h, 14 days after application, read-out: Visual Growth Reduction (%) 14 Days After Application SETFA; for pest or weed control at 17.5 g/ha: 17.5 g ai/ha; for pest or weed control at 35 g/ha: 35 g ai/ha; for pest or weed control at 70 g/ha: 70 g ai/ha; for pest or weed control at 140 g/ha: 140 g ai/ha
Summary of the method: as §1

[3] = tested on: BRSNN: oilseed rape, canola (Brassica napus); experiment: Post-emergent herbicidal test, oilseed rape; conditions: post-emergence, 336 h, 14 days after application, read-out: Visual Growth Reduction (%) 14 Days After Application BRSNN; for pest or weed control at 17.5 g/ha: 17.5 g ai/ha; for pest or weed control at 35 g/ha: 35 g ai/ha; for pest or weed control at 70 g/ha: 70 g ai/ha; for pest or weed control at 140 g/ha: 140 g ai/ha
Summary of the method: as §1

[4] = tested on: CIRAR: Canada thistle (Cirsium arvense); experiment: Post-emergent herbicidal test, Canada thistle; conditions: post-emergence, 336 h, 14 days after application, read-out: Visual Growth Reduction (%) 14 Days After Application CIRAR; for pest or weed control at 17.5 g/ha: 17.5 g ai/ha; for pest or weed control at 35 g/ha: 35 g ai/ha; for pest or weed control at 70 g/ha: 70 g ai/ha; for pest or weed control at 140 g/ha: 140 g ai/ha
Summary of the method: as §1

[5] = tested on: DIGSA: large crabgrass (Digitaria sanguinalis); experiment: Post-emergent herbicidal test, large crabgrass; conditions: post-emergence, 336 h, 14 days after application, read-out: Visual Growth Reduction (%) 14 Days After Application DIGSA; for pest or weed control at 17.5 g/ha: 17.5 g ai/ha; for pest or weed control at 35 g/ha: 35 g ai/ha; for pest or weed control at 70 g/ha: 70 g ai/ha; for pest or weed control at 140 g/ha: 140 g ai/ha
Summary of the method: as §1

[6] = tested on: CYPES: yellow nutsedge (Cyperus esculentus); experiment: Post-emergent herbicidal test, yellow nutsedge; conditions: post-emergence, 336 h, 14 days after application, read-out: Visual Growth Reduction (%) 14 Days After Application CYPES; for pest or weed control at 17.5 g/ha: 17.5 g ai/ha; for pest or weed control at 35 g/ha: 35 g ai/ha; for pest or weed control at 70 g/ha: 70 g ai/ha; for pest or weed control at 140 g/ha: 140 g ai/ha
Summary of the method: as §1

[7] = tested on: ABUTH: velvetleaf (Abutilon theophrasti); experiment: Post-emergent herbicidal test, velvetleaf; conditions: post-emergence, 336 h, 14 days after application, read-out: Visual Growth Reduction (%) 14 Days After Application ABUTH; for pest or weed control at 17.5 g/ha: 17.5 g ai/ha; for pest or weed control at 35 g/ha: 35 g ai/ha; for pest or weed control at 70 g/ha: 70 g ai/ha; for pest or weed control at 140 g/ha: 140 g ai/ha
Summary of the method: as §1

[8] = tested on: ECHCG: barnyardgrass (Echinochloa crus-galli); experiment: Post-emergent herbicidal test, barnyardgrass; conditions: post-emergence, 336 h, 14 days after application, read-out: Visual Growth Reduction (%) 14 Days After Application ECHCG; for pest or weed control at 17.5 g/ha: 17.5 g ai/ha; for pest or weed control at 35 g/ha: 35 g ai/ha; for pest or weed control at 70 g/ha: 70 g ai/ha; for pest or weed control at 140 g/ha: 140 g ai/ha
Summary of the method: as §1

[9] = tested on: IPOHE: ivyleaf morningglory (Ipomoea hederacea); experiment: Post-emergent herbicidal test, ivyleaf morningglory; conditions: post-emergence, 336 h, 14 days after application, read-out: Visual Growth Reduction (%) 14 Days After Application IPOHE; for pest or weed control at 17.5 g/ha: 17.5 g ai/ha; for pest or weed control at 35 g/ha: 35 g ai/ha; for pest or weed control at 70 g/ha: 70 g ai/ha; for pest or weed control at 140 g/ha: 140 g ai/ha
Summary of the method: as §1

[10] = tested on: VIOTR: wild violet (Viola tricolor); experiment: Post-emergent herbicidal test, wild violet; conditions: post-emergence, 336 h, 14 days after application, read-out: Visual Growth Reduction (%) 14 Days After Application VIOTR; for pest or weed control at 17.5 g/ha: 17.5 g ai/ha; for pest or weed control at 35 g/ha: 35 g ai/ha; for pest or weed control at 70 g/ha: 70 g ai/ha; for pest or weed control at 140 g/ha: 140 g ai/ha
Summary of the method: as §1

[11] = tested on: EPHHL: wild poinsettia (Euphorbia heterophylla); experiment: Post-emergent herbicidal test, wild poinsettia; conditions: post-emergence, 336 h, 14 days after application, read-out: Visual Growth Reduction (%) 14 Days After Application EPHHL; for pest or weed control at 17.5 g/ha: 17.5 g ai/ha; for pest or weed control at 35 g/ha: 35 g ai/ha; for pest or weed control at 70 g/ha: 70 g ai/ha; for pest or weed control at 140 g/ha: 140 g ai/ha
Summary of the method: as §1

`Nc1c(F)c(-c2ccc(Cl)c3c2OCO3)nc(C(=O)O)c1Cl` [Compound 1, 4-amino-3-chloro-6-(7-chlorobenzo[d][1,3]dioxol-4-yl)-5-fluoropicolinic acid] was tested, and the pest or weed control at 17.5 g/ha [1] was 35%, the pest or weed control at 35 g/ha [1] was 35% and the pest or weed control at 70 g/ha [1] was 50%. The pest or weed control at 140 g/ha [1] was 60%, the pest or weed control at 17.5 g/ha [2] was 10% and the pest or weed control at 35 g/ha [2] was 10%. The pest or weed control at 70 g/ha [2] was 35%, the pest or weed control at 140 g/ha [2] was 50% and the pest or weed control at 17.5 g/ha [3] was 55%. The pest or weed control at 35 g/ha [3] was 100%, the pest or weed control at 70 g/ha [3] was 100% and the pest or weed control at 140 g/ha [3] was 100%. It also gave a pest or weed control at 17.5 g/ha [4] of 85%, a pest or weed control at 35 g/ha [4] of 85% and a pest or weed control at 70 g/ha [4] of 95%. It also gave a pest or weed control at 140 g/ha [4] of 90%, a pest or weed control at 17.5 g/ha [5] of 0% and a pest or weed control at 35 g/ha [5] of 20%. The pest or weed control at 70 g/ha [5] was 30%, the pest or weed control at 140 g/ha [5] was 50% and the pest or weed control at 17.5 g/ha [6] was 35%. The pest or weed control at 35 g/ha [6] was 40%, the pest or weed control at 70 g/ha [6] was 80% and the pest or weed control at 140 g/ha [6] was 90%. The pest or weed control at 17.5 g/ha [7] was 80%, the pest or weed control at 35 g/ha [7] was 85% and the pest or weed control at 70 g/ha [7] was 90%. The pest or weed control at 140 g/ha [7] was 95%, the pest or weed control at 17.5 g/ha [8] was 0% and the pest or weed control at 35 g/ha [8] was 0%. For the same molecule, the pest or weed control at 70 g/ha [8] was 30%, the pest or weed control at 140 g/ha [8] was 40% and the pest or weed control at 17.5 g/ha [9] was 0%. For the same molecule, the pest or weed control at 35 g/ha [9] was 0%, the pest or weed control at 70 g/ha [9] was 10% and the pest or weed control at 140 g/ha [9] was 15%. It also gave a pest or weed control at 17.5 g/ha [10] of 40%, a pest or weed control at 35 g/ha [10] of 60% and a pest or weed control at 70 g/ha [10] of 70%. For the same molecule, the pest or weed control at 140 g/ha [10] was 95%, the pest or weed control at 17.5 g/ha [11] was 0% and the pest or weed control at 35 g/ha [11] was 0%. For the same molecule, the pest or weed control at 70 g/ha [11] was 5% and the pest or weed control at 140 g/ha [11] was 15%.

`COC(=O)c1nc(-c2ccc(F)c3c2OCO3)c(F)c(N)c1Cl` [Compound 15] gave a pest or weed control at 17.5 g/ha [1] of 0%, a pest or weed control at 35 g/ha [1] of 0% and a pest or weed control at 70 g/ha [1] of 0%. It also gave a pest or weed control at 140 g/ha [1] of 20%, a pest or weed control at 17.5 g/ha [2] of 0% and a pest or weed control at 35 g/ha [2] of 0%. The pest or weed control at 70 g/ha [2] was 0%, the pest or weed control at 140 g/ha [2] was 20% and the pest or weed control at 17.5 g/ha [3] was 20%. For the same molecule, the pest or weed control at 35 g/ha [3] was 40%, the pest or weed control at 70 g/ha [3] was 95% and the pest or weed control at 140 g/ha [3] was 100%. The pest or weed control at 17.5 g/ha [4] was 80%, the pest or weed control at 35 g/ha [4] was 85% and the pest or weed control at 70 g/ha [4] was 90%. For the same molecule, the pest or weed control at 140 g/ha [4] was 95%, the pest or weed control at 17.5 g/ha [5] was 0% and the pest or weed control at 35 g/ha [5] was 0%. It also gave a pest or weed control at 70 g/ha [5] of 0%, a pest or weed control at 140 g/ha [5] of 0% and a pest or weed control at 17.5 g/ha [6] of 0%. It also gave a pest or weed control at 35 g/ha [6] of 0%, a pest or weed control at 70 g/ha [6] of 0% and a pest or weed control at 140 g/ha [6] of 0%. The pest or weed control at 17.5 g/ha [7] was 70%, the pest or weed control at 35 g/ha [7] was 85% and the pest or weed control at 70 g/ha [7] was 90%. The pest or weed control at 140 g/ha [7] was 100%, the pest or weed control at 17.5 g/ha [8] was 0% and the pest or weed control at 35 g/ha [8] was 0%. For the same molecule, the pest or weed control at 70 g/ha [8] was 0%, the pest or weed control at 140 g/ha [8] was 0% and the pest or weed control at 17.5 g/ha [9] was 0%. For the same molecule, the pest or weed control at 35 g/ha [9] was 0%, the pest or weed control at 70 g/ha [9] was 0% and the pest or weed control at 140 g/ha [9] was 0%. For the same molecule, the pest or weed control at 17.5 g/ha [10] was 30%, the pest or weed control at 35 g/ha [10] was 60% and the pest or weed control at 70 g/ha [10] was 70%. For the same molecule, the pest or weed control at 140 g/ha [10] was 80%, the pest or weed control at 17.5 g/ha [11] was 0% and the pest or weed control at 35 g/ha [11] was 0%. For the same molecule, the pest or weed control at 70 g/ha [11] was 0% and the pest or weed control at 140 g/ha [11] was 0%.
